These results are taken from patent publication US8742082B2, “Compositions and methods for influencing satiety, lipid metabolism, and fat utilization” (Nestec S.A., priority 2008, dated 2014).

Common to all, as to format: in vivo
The subject of one assay is CPT1. Description: Real-time PCR gene expression in peripheral tissues: CPT1. To be noted: C57bl6j mice, high fat diet, 100 mg/kg/body weight in diet, 5 weeks. Here is the method:
(§1) The expression of 45 genes was measured by real-time PCR in peripheral tissues to identify genes that were differentially expressed in response to oral administration of oleoylethanolamide (OEA) or a non-hydrolysable OEA analog (KDS 5104), which affect satiety, lipid metabolism, fat utilization, food intake, and body fat mass.
(§2) Animals, diet, and experimental design. Adult male C57bl6j mice purchased at 8 weeks of age were individually housed and maintained ad libitum on high fat diet and water for 2 weeks. Seven mice were randomly allocated in 3 groups and fed with a high fat diet (lipids represented 50% of daily energy) for 2 weeks. For one kilogram, the composition of the high fat diet was: 235 g casein, 201 g saccharose, 3.5 g L-cystine, 85 g starch, 116 g maltodextrin, 60 g cellulose, 12 g vitamins mix (AIN-93M, UPAE, Jouy-en-Josas, France), 51.5 g mineral mix (AIN-93Vx, UPAE, Jouy-en-Josas, France), and 236 g lard. Then, either OEA or KDS 5104 was added to the diet at a concentration of 100 mg/kg/body weight. The mice were kept under treatment for 5 weeks.
(§3) Sampling. At the end of the experimental period, mice were sacrificed by blood drawing (cardiac puncture) after anesthesia with isoflurane. Plasma was obtained by centrifugation (1,000 g for 10 min at 4° C.). Mesenteric, epididymal, inguinal and peritoneal adipose depots, as well as liver, stomach, small intestine mucosa, pancreas, and gastrocnemian muscle were removed and frozen into liquid nitrogen. Plasma, urine, feces, and organ samples were kept at −80° C. until analysis.
(§4) RNA extraction and gene expression. Total RNA from liver, intestine mucous membrane, adipose tissues, gastrocnemian muscle, pancreas and stomach were extracted with TRIzol reagent (Invitrogen, Carlsbad, USA) according to the manufacturer's instruction. The RNA concentration was determined on nanodrop from the absorbance at 260 nm. Retro-transcription PCRs to synthesize cDNA were performed using an Applied Biosystem Thermal Cycler 2720 and Superscript II (Invitrogen, Carlsbad, USA) according to manufacturer's protocol. Real-time quantitative PCR (RT-qPCR) were performed on cDNA obtained as described above using a high through put system (Biomek 3000, Beckman & Coulter, Fullerton, USA) and a Lightcycler 480 (Roche/Hitachi, Basel, Switzerland) with SYBR Green Master mix+kit (Eurogentec, Philadelphia, USA). Primers for the selected genes were generated using online informatics assistance from the Lightcycler manufacturer (Roche). Databases used to identify the genes were (1) the NCBI database (GenBank) and (2) the IHOP (Information Hyperlinked over Protein) database (www.ihop-net.org/UniPub/iHOP/bng/). Values were expressed as ratio of RNA levels relative to control mice (diets with 0 mg of OEA/kg/body weight) using ΔΔ(Ct) (Livak K J & Schmittgen T D, 2001, Methods 25:402-8). Gene expression of the following genes was measured (abbreviation and GenBank Accession shown in parentheses).
(§5) Statistical analysis. […] Statistical analysis of physiological parameters and gene expression data was performed by one-way ANOVA on Statview software (SAS Institute, Cary, USA). Daily food intake was analyzed using two-way ANOVA on Statview software. Statistical significance was set up at the P<0.05 level, the P<0.01 level and the P<0.001 level. For statistical analysis of the gene expression data, values were calculated relative to 18S expression for each mouse and gene.
On the technique in general: Quantitative PCR measures a nucleic acid by following its amplification.

Another assay has as its system AcylCoA oxidase (ACO). Kind of assay: Real-time PCR gene expression in peripheral tissues: ACO. As to conditions: liver; C57bl6j mice, high fat diet, 100 mg/kg/body weight in diet, 5 weeks. Here is the method:
as §1
(§6) Animals, diet, and experimental design. Adult male C57bl6j mice purchased at 8 weeks of age were individually housed and maintained ad libitum on high fat diet and water for 2 weeks. Seven mice were randomly allocated in 3 groups and fed with a high fat diet (lipids represented 50% of daily energy) for 2 weeks. […]
(§7) RNA extraction and gene expression. […] The RNA concentration was determined on nanodrop from the absorbance at 260 nm. […] Real-time quantitative PCR (RT-qPCR) were performed on cDNA obtained as described above using a high through put system (Biomek 3000, Beckman & Coulter, Fullerton, USA) and a Lightcycler 480 (Roche/Hitachi, Basel, Switzerland) with SYBR Green Master mix+kit (Eurogentec, Philadelphia, USA). […] Values were expressed as ratio of RNA levels relative to control mice (diets with 0 mg of OEA/kg/body weight) using ΔΔ(Ct) (Livak K J & Schmittgen T D, 2001, Methods 25:402-8). Gene expression of the following genes was measured (abbreviation and GenBank Accession shown in parentheses). […]

In assay [1] the test system is Uncoupling protein 2 (UCP2). Kind of assay: Real-time PCR gene expression in peripheral tissues: UCP2. To be noted: muscle; C57bl6j mice, high fat diet, 100 mg/kg/body weight in diet, 5 weeks. Here is the method: as §1, §6, §7
The subject of assay [2] is Fatty Acid Synthase (FAS 1). Kind of assay: Real-time PCR gene expression in peripheral tissues: FAS. To be noted: liver; C57bl6j mice, high fat diet, 100 mg/kg/body weight in diet, 5 weeks. As for the experimental part:
as §1, §6, §7

Assay [3] deals with Sterol regulatory element binding protein-c 1 (SREBP 1c). Kind of assay: Real-time PCR gene expression in peripheral tissues: SREBP1c. As to conditions: C57bl6j mice, high fat diet, 100 mg/kg/body weight in diet, 5 weeks. As for the experimental part: as §1, §2, §3, §4, §5
In assay [4] the test system is Sterol regulatory element binding protein-C 2 (SREBP2 1). Kind of assay: Real-time PCR gene expression in peripheral tissues: SREBP2. To be noted: liver; C57bl6j mice, high fat diet, 100 mg/kg/body weight in diet, 5 weeks. Here is the method: as §1, §6, §7
Assay [5] deals with Stearoyl-Coenzyme A desaturase 1 (SCD 1). Kind of assay: Real-time PCR gene expression in peripheral tissues: SCD1. As to conditions: C57bl6j mice, high fat diet, 100 mg/kg/body weight in diet, 5 weeks. Here is the method:
as §1, §2, §3, §4, §5

Assay [6] has as its system Fatty acid transporter/cluster of differentiation 36 (FAT/CD 36). Description: Real-time PCR gene expression in peripheral tissues: FAT/CD36. To be noted: C57bl6j mice, high fat diet, 100 mg/kg/body weight in diet, 5 weeks. As for the experimental part:
as §1, §2, §3, §4
Statistical analysis. Results are presented as means±standard error of the means (SEM). Statistical analysis of physiological parameters and gene expression data was performed by one-way ANOVA on Statview software (SAS Institute, Cary, USA). Daily food intake was analyzed using two-way ANOVA on Statview software. Statistical significance was set up at the P<0.05 level, the P<0.01 level and the P<0.001 level. For statistical analysis of the gene expression data, values were calculated relative to 18S expression for each mouse and gene.

In assay [7] the test system is Protein convertase subtilisin/kexin type 9 (PCSK 9). Description: Real-time PCR gene expression in peripheral tissues: PCSK9. To be noted: liver; C57bl6j mice, high fat diet, 100 mg/kg/body weight in diet, 5 weeks. As for the experimental part: as §1, §6, §7
Assay [8] deals with Fasting induced adipocyte factor (Fiaf). Kind of assay: Real-time PCR gene expression in peripheral tissues: Fiaf. To be noted: C57bl6j mice, high fat diet, 100 mg/kg/body weight in diet, 5 weeks. As for the experimental part: as §1, §2, §3, §4, §5
The subject of another assay is Visfatin. Kind of assay: Real-time PCR gene expression in peripheral tissues: visfatin. To be noted: C57bl6j mice, high fat diet, 100 mg/kg/body weight in diet, 5 weeks. As for the experimental part: as §1, §2, §3
RNA extraction and gene expression. Total RNA from liver, intestine mucous membrane, adipose tissues, gastrocnemian muscle, pancreas and stomach were extracted with TRIzol reagent (Invitrogen, Carlsbad, USA) according to the manufacturer's instruction. The RNA concentration was determined on nanodrop from the absorbance at 260 nm. […] Real-time quantitative PCR (RT-qPCR) were performed on cDNA obtained as described above using a high through put system (Biomek 3000, Beckman & Coulter, Fullerton, USA) and a Lightcycler 480 (Roche/Hitachi, Basel, Switzerland) with SYBR Green Master mix+kit (Eurogentec, Philadelphia, USA). […] Values were expressed as ratio of RNA levels relative to control mice (diets with 0 mg of OEA/kg/body weight) using ΔΔ(Ct) (Livak K J & Schmittgen T D, 2001, Methods 25:402-8). Gene expression of the following genes was measured (abbreviation and GenBank Accession shown in parentheses).
Statistical analysis. […] Daily food intake was analyzed using two-way ANOVA on Statview software. […] For statistical analysis of the gene expression data, values were calculated relative to 18S expression for each mouse and gene.

Consider `CCCCCCCC/C=C\CCCCCCCC(=O)N[C@H](C)CO` [KDS 5104, (Z)—(R)-9-octadecenamide, N-(2-hydroxyethyl, 1-methyl)], for which the “CPT1 l, ratio of RNA levels relative to control mice” value in the assay with CPT1 (liver) worked out at 1.06. The “CPT1 p, ratio of RNA levels relative to control mice” value with CPT1 (pancreas) was 1.80. The “CPT1 i, ratio of RNA levels relative to control mice” value in the assay with CPT1 (proximal intestine) worked out at 1.63. In addition, the “ACO l, ratio of RNA levels relative to control mice” value in the assay with AcylCoA oxidase (ACO) is recorded as 1.15. Moreover, in [1], the “UCP2 m, ratio of RNA levels relative to control mice” value is reported as 1.11. Moreover, the “FAS l, ratio of RNA levels relative to control mice” value in assay [2] is 2.47. Further, the “SREBP1c at ep, ratio of RNA levels relative to control mice” value in [3] (epidydimal adipose tissue) was determined as 1.00. In addition, in assay [3] (liver), the “SREBP1c l, ratio of RNA levels relative to control mice” value is on record as 1.47. Besides, the “SREBP1c at per, ratio of RNA levels relative to control mice” value in [3] (peritoneal adipose tissue) is −1.35. The “SREBP2 l, ratio of RNA levels relative to control mice” value in assay [4] was determined as 1.13. Moreover, the “SCD 1 at ep, ratio of RNA levels relative to control mice” value in [5] (epidydimal adipose tissue) turned out to be 1.24. The “SCD1 l, ratio of RNA levels relative to control mice” value in assay [5] (liver) was −1.91. Besides, the “SCD 1 at per, ratio of RNA levels relative to control mice” value in assay [5] (peritoneal adipose tissue) was 1.51. In addition, the “FAT/CD36 at ep, ratio of RNA levels relative to control mice” value in assay [6] (epidydimal adipose tissue) is listed as −2.24. The “FAT/CD36 l, ratio of RNA levels relative to control mice” value in [6] (liver) is given as 0.88. The “FAT/CD36 at per, ratio of RNA levels relative to control mice” value in assay [6] (peritoneal adipose tissue) is 1.01. In [6] (proximal intestine), the “FAT/CD36 i, ratio of RNA levels relative to control mice” value amounted to 1.83. For the same molecule, in assay [7], the “PCSK9 l, ratio of RNA levels relative to control mice” value worked out at 1.34. In [8] (epidydimal adipose tissue), the “Fiaf at ep, ratio of RNA levels relative to control mice” value turned out to be 0.46. For the same molecule, in [8] (peritoneal adipose tissue), the “Fiaf at per, ratio of RNA levels relative to control mice” value worked out at 2.79. In addition, the “Fiaf i, ratio of RNA levels relative to control mice” value in assay [8] (proximal intestine) was found to be 0.68. Also, the “visfatin at ep, ratio of RNA levels relative to control mice” value in the assay on Visfatin (epidydimal adipose tissue) is −1.08. Further, the “visfatin at per, ratio of RNA levels relative to control mice” value in the assay with Visfatin (peritoneal adipose tissue) was −1.10.
